Earlier results in patent US6977083B1, “Bioadhesive tablet containing testosterone/testosterone ester mixtures and method for producing a predetermined testosterone time-release profile with same” (Jenapharm GmbH & Co. KG, priority 1998, dated 2005).

Details: after oral or parenteral administration

For `C[C@]12CC[C@H]3[C@@H](CCC4=CC(=O)CC[C@@]43C)[C@@H]1CC[C@@H]2O` [testosterone], the plasma half-life is listed as “about 10 minutes”.
